Reference: patent US7772241B2, “Variolin derivatives and their use as antitumor agents” (Pharma Mar S.A., priority 2001, dated 2010)
Like-named read-outs stand apart in the source and are kept apart here.

What was measured:
[1] = Inhibition of cells growth by colorimetric (SRB) assay, HMEC1; details: human, HMEC1 cells, LC50 H-MEC-1, SRB assay, 48 hours exposure
[2] = test system: HMEC1; assay: as above
[3] = test system: IGROV-1; assay: Inhibition of cells growth by colorimetric (SRB) assay, IGROV-1; details: SRB assay, 48 hours exposure
Procedure, shortened: (§1)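 Human tumour cells in RPMI 1640 with 10% FBS were seeded at 5×10^3 cells/well, allowed to attach for 18 h, then exposed to samples at 10 to 10^−8 μg/ml for 48 h. Growth was measured by SRB staining after TCA fixation, with absorbance read at 490 nm in triplicate wells.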

[4] = test system: HeLa; assay: Inhibition of cells growth by colorimetric (SRB) assay, HeLa; details: SRB assay, 48 hours exposure
Procedure, shortened: as §1

[5] = test system: SK-MEL-28; assay: Inhibition of cells growth by colorimetric (SRB) assay, SK-MEL-28; details: SRB assay, 48 hours exposure
Procedure, shortened: as §1

[6] = test system: IGROV-ET; assay: Inhibition of cells growth by colorimetric (SRB) assay, IGROV-ET; details: SRB assay, 48 hours exposure
Procedure, shortened: as §1

[7] = test system: HT-29; assay: Inhibition of cells growth by colorimetric (SRB) assay, HT-29
Procedure, shortened: as §1

[8] = test system: LoVo-Dox; assay: Inhibition of cells growth by colorimetric (SRB) assay, LoVo-Dox; details: SRB assay, 48 hours exposure
Procedure, shortened: as §1

[9] = test system: HeLa-APL; assay: Inhibition of cells growth by colorimetric (SRB) assay, HeLa-APL; details: SRB assay, 48 hours exposure
Procedure, shortened: as §1

[10] = test system: SK-BR-3; assay: Inhibition of cells growth by colorimetric (SRB) assay, SK-BR-3; details: SRB assay, 48 hours exposure
Procedure, shortened: as §1

[11] = test system: DU-145; assay: Inhibition of cells growth by colorimetric (SRB) assay, DU-145; details: SRB assay, 48 hours exposure
Procedure, shortened: as §1

[12] = test system: LoVo; assay: Inhibition of cells growth by colorimetric (SRB) assay, LoVo; details: SRB assay, 48 hours exposure
Procedure, shortened: as §1

[13] = test system: LNCaP; assay: Inhibition of cells growth by colorimetric (SRB) assay, LNCaP; details: SRB assay, 48 hours exposure
Procedure, shortened: as §1

[14] = test system: A-549; assay: Inhibition of cells growth by colorimetric (SRB) assay, A-549
Procedure, shortened: as §1

[15] = test system: PANC-1; assay: Inhibition of cells growth by colorimetric (SRB) assay, PANC-1; details: SRB assay, 48 hours exposure
Procedure, shortened: as §1

[16] = test system: K-562; assay: Inhibition of cells growth by colorimetric (SRB) assay, K-562; details: SRB assay, 48 hours exposure
Procedure, shortened: as §1

- GI50 ([4]; read-out: HELA GI50): 0.00916 µM
- GI50 ([5]; read-out: MEL-28 GI50): ≥ 30.8 µM
- GI50 ([7]; Homo sapiens, HT-29, 48 h, read-out: GI50 HT-29, SRB assay, 48 hours exposure): ≥ 30.8 µM
- GI50 ([7]; read-out: HT-29 GI50, SRB assay, 48 hours exposure): ≥ 30.8 µM
- GI50 ([8]; read-out: LOVO-DOX GI50): ≥ 30.8 µM
- GI50 ([9]; read-out: HELA-APL GI50): 0.00546 µM
- GI50 ([10]; read-out: SK-BR-3 GI50): 1.52 µM
- GI50 ([11]; read-out: DU-145 GI50): 10.2 µM
- GI50 ([12]; read-out: LOVO GI50): 11.3 µM
- GI50 ([13]; read-out: LN-caP GI50): 4.1 µM
- GI50 ([14]; Homo sapiens, A549, 48 h, read-out: GI50 A-549, SRB assay, 48 hours exposure): ≥ 30.8 µM
- GI50 ([14]; read-out: A-549 GI50, SRB assay, 48 hours exposure): 8.63 µM
- GI50 ([15]; read-out: PANC-1 GI50): 24.2 µM
- GI50 ([16]; read-out: K-562 GI50): ≥ 30.8 µM
Structure (SMILES): CSc1nccc(-c2c3c(O)ccnc3n3c(N)nccc23)n1 [Compound 95]
- CC50 at 48 h [1]: ≥ 30.8 µM
- GI50 ([2]; Homo sapiens, HMEC-1, 48 h, read-out: GI50 H-MEC-1, SRB assay, 48 hours exposure): ≥ 30.8 µM
- TGI H-MEC-1 ([2]; SRB assay, 48 hours exposure, in M (unit assumed)): 3.08E−05
- IGROV TGI [3]: 3.08E−05
- GI50 ([3]; read-out: IGROV GI50): ≥ 30.8 µM
- CC50 ([3]; read-out: IGROV LC50): ≥ 30.8 µM
- HELA TGI [4]: 2.57E−08
- MEL-28 TGI [5]: 3.08E−05
- CC50 ([5]; read-out: MEL-28 LC50): ≥ 30.8 µM
- IGROV-ET TGI [6]: 3.08E−05
- GI50 ([6]; read-out: IGROV-ET GI50): 3.95 µM
- CC50 ([6]; read-out: IGROV-ET LC50): ≥ 30.8 µM
- CC50 ([7]; Homo sapiens, HT-29, 48 h, read-out: LC50 HT-29, SRB assay, 48 hours exposure): ≥ 30.8 µM
- HT-29 TGI ([7]; SRB assay, 48 hours exposure): 3.08E−05
- TGI HT-29 ([7]; SRB assay, 48 hours exposure): 3.08E−05
- CC50 ([7]; read-out: HT-29 LC50, SRB assay, 48 hours exposure): ≥ 30.8 µM
- LOVO-DOX TGI [8]: 3.08E−05
- CC50 ([8]; read-out: LOVO-DOX LC50): ≥ 30.8 µM
- HELA-APL TGI [9]: 1.31E−08
- CC50 ([9]; read-out: HELA-APL LC50): 0.0382 µM
- SK-BR-3 TGI [10]: 3.08E−05
- CC50 ([10]; read-out: SK-BR-3 LC50): ≥ 30.8 µM
- DU-145 TGI [11]: 3.08E−05
- CC50 ([11]; read-out: DU-145 LC50): ≥ 30.8 µM
- LOVO TGI [12]: 3.08E−05
- CC50 ([12]; read-out: LOVO LC50): ≥ 30.8 µM
- LN-caP TGI [13]: 3.08E−05
- CC50 ([13]; read-out: LN-caP LC50): ≥ 30.8 µM
- CC50 ([14]; Homo sapiens, A549, 48 h, read-out: LC50 A-549, SRB assay, 48 hours exposure): ≥ 30.8 µM
- A-549 TGI ([14]; SRB assay, 48 hours exposure): 3.08E−05
- TGI A-549 ([14]; SRB assay, 48 hours exposure): 3.08E−05
- CC50 ([14]; read-out: A-549 LC50, SRB assay, 48 hours exposure): ≥ 30.8 µM
- PANC-1 TGI [15]: 3.08E−05
- CC50 ([15]; read-out: PANC-1 LC50): ≥ 30.8 µM
- K-562 TGI [16]: 3.08E−05
- CC50 ([16]; read-out: K-562 LC50): ≥ 30.8 µM
